# From patent US8592421B2, “Cyclic bioisosters of purine system derivatives and a pharmaceutical composition based thereon” (priority 2003, dated 2013)
# Assays:
# [1] = Electrochemical activity: polarographic reduction on mercury dripping electrode; type: physicochemical; settings: for i: 2.0% sodium chloride background, 9·10^−4 M; for i / −E1/2: 37° C., forward trace, average for the group of compounds; for −E1/2: vs SCE
# thrombocytes = experiment: ADP-induced aggregation of thrombocytes after intravenous administration (in vivo); set-up: species or system rabbit
# Description: The experiments were carried out on male rabbits of the “Chinchilla” breed having a mass of 2.7±0.3 kg. 18-24 hours prior to the experiment they were deprived of feed while preserving free access to water.
# To obtain plasma enriched with thrombocytes, blood was taken from a cut of a marginal vein of the rabbit ear, the sample was stabilized with 3.8% of sodium citrate solution in a ratio of 9:1 and centrifuged at 200 g (1000 rev/min) for 10 minutes. The top supernatant layer enriched with thrombocytes was transferred by an automatic dropper into a silicone test tube and kept at 37° C. The plasma enriched with thrombocytes contained, on the average, […]. If this content exceeded the specified 3×10^8 blood platelets in 1 liter, this sample was diluted to the necessary concentration with plasma deprived of thrombocytes, which was obtained by centrifuging blood at 650 g during 10 minutes.
# The measurements of the optical density of the samples were made on two-channel aggregometer of the “Chronolog” Company (USA). A flask containing 490 mkl of plasma rich with thrombocytes was placed in a device, into which a magnetic agitator covered with Teflon was lowered. The index of maximum amplitude of aggregation (MA) in percent of a fall of the plasma optical density under effect of the aggregation inductor was recorded. The control index MA of plasma was compared with the MA of plasma incubated for 3 minutes with different concentrations of the compounds: from 10^−3 to 10^−7 in vitro experiments or with plasma obtained 15, 30, 60 and 120 minutes after intravenous administration of different doses of the compounds in vivo experiments.
# The process of aggregation of thrombocytes was recorded with the help of a computer; on the monitor screen the there were depicted curves reflecting changes of the optical density of the plasma enriched which was taken as a standard 100% compared to the optical density of the non-thrombocyte plasma taken for 0% content of thrombocytes.
# The antiaggregative capability of compounds 2, 15, 21, 37, according to the invention was tested in experiments in vivo. Introduced to the test animals intravenously were an aggregation inductor ADP at a concentration of 10^−5 M was and then the compounds according to the invention. The doses of the compounds were in a range from 15 to 60 mg/kg.
# For leveling the different effects of the compounds in different days due the ambient temperature, humidity and other parameters, 2 animals of each series were taken for experiments every day. Under “series” there is understood a group of 6 animals used for studying one of the doses of the compounds.
# The blood for obtaining plasma enriched with thrombocytes was taken from marginal vein of the rabbit ear: in the control group—directly before introducing the tested compounds; in investigated groups—15 minutes after introducing these compounds and then after 30, 60, 120 minutes and so on up to the moment when the effect of suppression of aggregation disappeared.
# The quantity of thrombocytes was counted before the experiment and at the end thereof in each plasma sample.
# [2] = Morphine abstinence model: thymus condition (mass, nitrites); type: in vivo, rats; settings: for Nitrites in thymus supernatant: control 0.331 ± 0.041; for Thymus mass: control 230 ± 14
# From the text: The spectrometric method is based the reaction of nitrites with the Griss reagent (a mixture of 2% solution of sulfanilamide and 0.2% N-(1-naphthyl)ethylene diamine. At the first step the nitrite reacts with sulfanilamide with formation of diazonium salt, and then with the second component to form azo dye with an adsorption maximum at 540 nm. For reduction of nitrates into nitrites, a fermentative method was used with bacterial reductase nitrate (Grisham M. B. et al., 1995). The samples of plasma and supernathant of the liver deproteinizated at 100° C. for 5 minutes incubated for 30 minutes at 37° C. in 50.0 mM of HEPES pH 7.4 in the presence of 0.2 unit/ml of Aspergillus reductase nitrate, 5.0 mkM of FAD and 0.1 mM of NAD-Ph. At the end of the reaction lactate dehydrogenase and pyruvate were added for isolation of NAD-Ph interfering with the Griss reaction. Then the Griss reagent was added and after 10-minute incubation the light absorption of the samples was measured at 540 nm. To amount of NOX^− was calculated using sodium nitrate as a standard.
# The effect of the compounds according to the invention on the condition of the thymus of the rats was also investigated: a control group, an experimental group of morphinized animals and an experimental group of animals were first morphinized and then injected with the compounds according to the invention. The experiment was carried out similarly to that described above.
# [3] = Administration of morphine and compound
smiles,measurement,setting,value
"Nc1cccc2c(=O)[nH][nH]c(=O)c12.[Na] [Compound 15, sodium salt of 5-amino-benzo[d]-3H-pyridazine-1,4-dione]",number of electrons participating in the reduction reaction,[1]; calculated with Geirovsky-Ilkovich equation,4.09
same,i,[1]; pH 7.0,0.23 ± 0.03 mkA
same,−E1/2,[1]; pH 7.0,0.092 ± 0.02 V
same,i,[1]; pH 7.2,0.30 ± 0.01 mkA
same,−E1/2,[1]; pH 7.2,0.09 ± 0.01 V
same,i,[1]; pH 7.4,0.29 ± 0.02 mkA
same,−E1/2,[1]; pH 7.4,0.092 ± 0.02 V
same,i,[1]; pH 7.6,0.31 ± 0.02 mkA
same,−E1/2,[1]; pH 7.6,0.09 ± 0.01 V
same,half-wave potential more positive at reverse stroke compared to forward stroke,[1]; polarograms of reverse stroke,30.0 mV
same,MA - drop of optical density,"thrombocytes; 15.0 mg/kg intravenously, after 15 minutes, control 50.1 ± 1.7",42.8 ± 1.8 %
same,MA - drop of optical density,"thrombocytes; 15.0 mg/kg intravenously, after 30 minutes, control 50.1 ± 1.7",41.8 ± 1.5 %
same,MA - drop of optical density,"thrombocytes; 15.0 mg/kg intravenously, after 60 minutes, control 50.1 ± 1.7",45.6 ± 1.5 %
same,MA - drop of optical density,"thrombocytes; 15.0 mg/kg intravenously, after 120 minutes, control 50.1 ± 1.7",48.3 ± 2.3 %
same,MA - drop of optical density,"thrombocytes; 30.0 mg/kg intravenously, after 15 minutes, control 61.0 ± 1.3",43.2 ± 2.2 %
same,MA - drop of optical density,"thrombocytes; 30.0 mg/kg intravenously, after 30 minutes, control 61.0 ± 1.3",41.8 ± 1.9 %
same,MA - drop of optical density,"thrombocytes; 30.0 mg/kg intravenously, after 60 minutes, control 61.0 ± 1.3",37.8 ± 1.8 %
same,MA - drop of optical density,"thrombocytes; 30.0 mg/kg intravenously, after 120 minutes, control 61.0 ± 1.3",58.1 ± 1.7%
same,MA - drop of optical density,"thrombocytes; 60.0 mg/kg intravenously, after 15 minutes, control 48.6 ± 1.3",43.1 ± 1.5 %
same,MA - drop of optical density,"thrombocytes; 60.0 mg/kg intravenously, after 30 minutes, control 48.6 ± 1.3",41.3 ± 1.5 %
same,MA - drop of optical density,"thrombocytes; 60.0 mg/kg intravenously, after 60 minutes, control 48.6 ± 1.3",44.7 ± 0.8%
same,MA - drop of optical density,"thrombocytes; 60.0 mg/kg intravenously, after 120 minutes, control 48.6 ± 1.3",47.2 ± 1.6%
same,Nitrites in thymus supernatant,[2]; Administration of compounds,0.407 ± 0.02 nmol/mg of protein
same,Thymus mass,[2]; Administration of compounds,298 ± 25 mg
same,Nitrites in thymus supernatant,[2]; [3],0.383 ± 0.02 nmol/mg of protein
same,Thymus mass,[2]; [3],214 ± 12 mg
